From patent US4308380A, “2-Lower alkyl-2 or 3-cephem-4-carboxylic acid derivatives” (Fujisawa Pharmaceutical Co., Ltd., priority 1973, dated 1981)
In brackets after ≈: the same amount, converted by molar mass. Read-outs that look alike come from different tables or passages of the source.

Tests used:
[1] = test system: Staphylococcus aureus 277; assay: in vitro antimicrobial activity, two-fold agar plate dilution method, S. aureus 277; type: cell-based; details: Table 1, S. aureus 277, 37° C., 20 hours, read-out: minimum inhibitory concentration (MIC)
Procedure: (§1) The in vitro tests of antimicrobial activity of the compared compounds were determined by the two-fold agar plate dilution method described as follows: […]

[2] = test system: Staphylococcus aureus 213; assay: in vitro antimicrobial activity, two-fold agar plate dilution method, S. aureus 213; type: cell-based; details: Table 1, S. aureus 213, 37° C., 20 hours, read-out: minimum inhibitory concentration (MIC)
Procedure: as §1

E. coli 327 [3] = assay: protecting effect against experimental infections in mice; type: in vivo, mice (male ICR strain); details: E. coli 327, intraperitoneal inoculation 8.5×10^2 cells/mouse, subcutaneous one hour after challenge, survival after one week, probit method
Procedure: The following test describes the method of estimating the protecting effects of Applicants' compound (18) versus cited […], "Keflex", against experimental infections in mice.
Male ICR strain mice aged 4 weeks, each weighing 20-23 g were used in groups of 8 mice. The organisms precultured overnight at 37° C. on HI-agar were suspended in 5% mucin solution to obtain cell concentrations of 8.5×10^2 cells/mouse. Mice were inoculated intraperitoneally with 0.5 ml of the suspension. Each of the test antibiotics was given subcutaneously to the mice one hour after challenge. The ED50 values were found by the probit method from the number of surviving mice after one week of observation.

[4] = test system: Bacillus subtilis ATCC-6633; assay: in vitro antimicrobial activity, two-fold agar-plate dilution method, B. subtilis ATCC-6633; type: cell-based
Procedure: (§2) In vitro antimicrobial activity was determined by the two-fold agar-plate dilution method as described below.
(§3) One loopful of an overnight culture of each test strain in Trypticase-soy broth (10^8 viable cells per ml) was streaked on heart infusion agar (HI-agar) containing graded concentration of antibiotics, and the minimum inhibitory concentration (MIC) was expressed in terms of meg/ml after incubation at 37° C. for 20 hours.
(§4) The data in Table 1 below present a comparison between the 2-(C1 -C6 alkyl)-cephem compounds of the present invention and known cephem compounds structurally analogous to the present compounds, differing only by alkyl substitution in the 3-position. The in vitro tests of antimicrobial activity of the compared compounds were determined by the two-fold agar plate dilution method described as follows:
as §3, with “(HI sugar)” for “(HI-agar)”, “mcg/ml” for “meg/ml”

[5] = test system: Staphylococcus aureus 206; assay: in vitro antimicrobial activity, two-fold agar plate dilution method, S. aureus 206; type: cell-based; details: Table 1, S. aureus 206, 37° C., 20 hours, read-out: minimum inhibitory concentration (MIC)
Procedure: as §1

[6] = test system: Staphylococcus aureus 278; assay: in vitro antimicrobial activity, two-fold agar plate dilution method, S. aureus 278; type: cell-based; details: Table 1, S. aureus 278, 37° C., 20 hours, read-out: minimum inhibitory concentration (MIC)
Procedure: as §1

E. coli 327 [7] = assay: in vitro MIC against E. coli 327 at different inoculum sizes (Table 2); type: cell-based
[8] = test system: Staphylococcus aureus 209 P JC-1; assay: in vitro antimicrobial activity, two-fold agar-plate dilution method, S. aureus 209 P JC-1; type: cell-based
Procedure: as §2, §3, §4
as §3, with “(HI sugar)” for “(HI-agar)”, “mcg/ml” for “meg/ml”

[9] = test system: Staphylococcus aureus 226; assay: in vitro antimicrobial activity, two-fold agar plate dilution method, S. aureus 226; type: cell-based; details: Table 1, S. aureus 226, 37° C., 20 hours, read-out: minimum inhibitory concentration (MIC)
Procedure: as §1

[10] = ATCC6633, Table 1, B. subtilis ATCC-6633, 37° C., 20 hours, read-out: minimum inhibitory concentration (MIC)
[11] = Escherichia coli, 327, E. coli 327, inoculum size 10^4
[12] = Escherichia coli, 327, E. coli 327, inoculum size 10^6
[13] = Escherichia coli, 327, E. coli 327, inoculum size 10^8
[14] = 209PJC1, Table 1, S. aureus 209 P JC-1, 37° C., 20 hours, read-out: minimum inhibitory concentration (MIC)
[15] = ATCC6633, B. subtilis ATCC-6633, 37° C., 20 hours, HI-agar, read-out: MIC
[16] = S. aureus 209-P JC-1, 37° C., 20 hours, HI-agar, read-out: MIC

Row | Structure (SMILES) | MIC [1] [µg/mL] | MIC [2] [µg/mL] | ED50 (E. coli 327 [3]) [mg/mouse] | MIC [4, 10] [µg/mL] | MIC [5] [µg/mL] | MIC [6] [µg/mL] | MIC (E. coli 327 [7]; [11]) [µg/mL] | MIC (E. coli 327 [7]; [12]) [µg/mL] | MIC (E. coli 327 [7]; [13]) [µg/mL] | MIC [8, 14] [µg/mL] | MIC [9] [µg/mL] | MIC ([4]; ATCC6633, 20 h, read-out: minimum inhibitory concentration (MIC)) [µg/mL] | MIC ([8]; 209PJC1, 20 h, read-out: minimum inhibitory concentration (MIC)) [µg/mL] | MIC [4, 15] [µg/mL] | MIC [8, 16] [µg/mL]
1 | CC1C=C(C(=O)O)N2C(=O)C(NC(=O)C(N)c3ccccc3)C2S1 (centres unmarked) [Applicants' compound (18), 2-Methyl-7-(2-phenylglycyl)-amino-3-cephem-4-carboxylic acid] | 12.5 (≈ 36 µM) | 50 (≈ 144 µM) | 0.25 | 1.56 (≈ 4.49 µM) | 12.5 (≈ 36 µM) | 25 (≈ 72 µM) | 12.5 (≈ 36 µM) | 50 (≈ 144 µM) | 100 (≈ 288 µM) | 6.25 (≈ 18 µM) | 25 (≈ 72 µM) | – | – | – | –
2 | CC1=C(C(=O)O)N2C(=O)C(NC(=O)C(N)c3ccccc3)[C@H]2SC1 (some centres unmarked) [cited compound (18), 3-Methyl-7-(2-phenylglycyl)amino-3-cephem-4-carboxylic acid, reference compound] | 3.13 (≈ 9.01 µM) | 12.5 (≈ 36 µM) | 1.06 | – | 6.25 (≈ 18 µM) | 3.13 (≈ 9.01 µM) | 6.25 (≈ 18 µM) | 12.5 (≈ 36 µM) | 100 (≈ 288 µM) | – | 12.5 (≈ 36 µM) | 1.56 (≈ 4.49 µM) | 3.13 (≈ 9.01 µM) | – | –
3 | CC1C=C(C(=O)O)N2C(=O)C(NC(=O)Cc3cccc(Cl)c3)[C@H]2S1 (some centres unmarked) [Applicants' compound (6), 2-Methyl-7-[2-(3-chlorophenyl)acetamido]-3-cephem-4-carboxylic acid] | 0.78 (≈ 2.13 µM) | 0.3 (≈ 0.818 µM) | – | 0.2 (≈ 0.545 µM) | 0.39 (≈ 1.06 µM) | 0.39 (≈ 1.06 µM) | – | – | – | 0.1 (≈ 0.273 µM) | 0.2 (≈ 0.545 µM) | – | – | 0.2 (≈ 0.545 µM) | 0.1 (≈ 0.273 µM)
4 | CC1=C(C(=O)O)N2C(=O)C(NC(=O)Cc3cccs3)[C@H]2SC1 (some centres unmarked) [cited compound (5), 3-Methyl-7-[2-(2-thienyl)acetamido]-3-cephem-4-carboxylic acid, reference compound] | 12.5 (≈ 36.9 µM) | 12.5 (≈ 36.9 µM) | – | 0.78 (≈ 2.3 µM) | 3.13 (≈ 9.25 µM) | 6.25 (≈ 18.5 µM) | – | – | – | 3.13 (≈ 9.25 µM) | 12.5 (≈ 36.9 µM) | – | – | – | –
5 | CC1=C(C(=O)O)N2C(=O)C(NC(=O)CC#N)[C@H]2SC1 (some centres unmarked) [cited compound (13), 3-Methyl-7-(2-cyanoacetamido)-3-cephem-4-carboxylic acid, reference compound] | 12.5 (≈ 44.4 µM) | 12.5 (≈ 44.4 µM) | – | 3.13 (≈ 11.1 µM) | 6.25 (≈ 22.2 µM) | 12.5 (≈ 44.4 µM) | – | – | – | 6.25 (≈ 22.2 µM) | 12.5 (≈ 44.4 µM) | – | – | – | –
6 | CSc1ccc(C(N)C(=O)NC2C(=O)N3C(C(=O)O)=CC(C)S[C@H]23)cc1 (some centres unmarked) [Applicants' compound (16), 2-Methyl-7-[2-amino-2-(4-methylthiophenyl)acetamido]-3-cephem-4-carboxylicacid] | 25 (≈ 63.5 µM) | 25 (≈ 63.5 µM) | – | 6.25 (≈ 15.9 µM) | 6.25 (≈ 15.9 µM) | 12.5 (≈ 31.8 µM) | – | – | – | 3.13 (≈ 7.95 µM) | 6.25 (≈ 15.9 µM) | – | – | 6.25 (≈ 15.9 µM) | 3.13 (≈ 7.95 µM)
7 | CC1C=C(C(=O)O)N2C(=O)C(NC(=O)CC#N)[C@H]2S1 (some centres unmarked) [Applicants' compound (13), 2-Methyl-7-(2-cyanoacetamido)-3-cephem-4-carboxylic acid] | 3.13 (≈ 11.1 µM) | 12.5 (≈ 44.4 µM) | – | 3.13 (≈ 11.1 µM) | 6.25 (≈ 22.2 µM) | 6.25 (≈ 22.2 µM) | – | – | – | 3.13 (≈ 11.1 µM) | 6.25 (≈ 22.2 µM) | – | – | 3.13 (≈ 11.1 µM) | 3.13 (≈ 11.1 µM)
8 | CC1C=C(C(=O)O)N2C(=O)C(NC(=O)Cc3csc(N)n3)[C@H]2S1 (some centres unmarked) [Applicants' compound (17), 2-Methyl-7-[2-(2-aminothiazol-4-yl)acetamido]-3-cephem-4-carboxylic acid] | 1.56 (≈ 4.4 µM) | 1.56 (≈ 4.4 µM) | – | 3.13 (≈ 8.83 µM) | 3.13 (≈ 8.83 µM) | 1.56 (≈ 4.4 µM) | – | – | – | 1.56 (≈ 4.4 µM) | 1.56 (≈ 4.4 µM) | – | – | – | –
9 | CC1=C(C(=O)O)N2C(=O)C(NC(=O)C(OC(=O)c3ccncc3)c3ccccc3)C2SC1 (centres unmarked) [cited compound (4), reference compound] | 12.5 (≈ 27.6 µM) | 12.5 (≈ 27.6 µM) | – | 0.78 (≈ 1.72 µM) | 12.5 (≈ 27.6 µM) | 12.5 (≈ 27.6 µM) | – | – | – | 1.56 (≈ 3.44 µM) | 12.5 (≈ 27.6 µM) | – | – | – | –
10 | CC1C=C(C(=O)O)N2C(=O)C(NC(=O)Cc3cccs3)[C@H]2S1 (some centres unmarked) [Applicants' compound (5), 2-Methyl-7-[2-(2-thienyl)acetamido]-3-cephem-4-carboxylic acid] | 1.56 (≈ 4.61 µM) | 1.56 (≈ 4.61 µM) | – | 0.39 (≈ 1.15 µM) | 1.56 (≈ 4.61 µM) | 1.56 (≈ 4.61 µM) | – | – | – | 0.78 (≈ 2.3 µM) | 1.56 (≈ 4.61 µM) | – | – | 0.39 (≈ 1.15 µM) | 0.78 (≈ 2.3 µM)
11 | CC1C=C(C(=O)O)N2C(=O)C(NC(=O)C(O)c3cccs3)[C@H]2S1 (some centres unmarked) [Applicants' compound (2), 2-Methyl-7-[2-hydroxy-2-(2-thienyl)acetamido]-3-cephem-4-carboxylic acid] | 3.13 (≈ 8.83 µM) | 3.13 (≈ 8.83 µM) | – | 0.78 (≈ 2.2 µM) | 0.78 (≈ 2.2 µM) | 3.13 (≈ 8.83 µM) | – | – | – | 0.78 (≈ 2.2 µM) | 3.13 (≈ 8.83 µM) | – | – | 0.78 (≈ 2.2 µM) | 0.78 (≈ 2.2 µM)
